We go through 18 compounds from PMC12518634, “The noncanonical function of liver-type phosphofructokinase potentiates the efficacy of HDAC inhibitors in cancer” (Signal Transduction and Targeted Therapy, 2025).

Each structure is given as a SMILES string. Counter-ions that a name gives are not always drawn. Like-named read-outs stand apart in the source and are kept apart here.

The subject of one test is 1405R3. Put plainly: High-throughput drug screen, CellTiter-Glo viability, 72 h. The note with it: 1405R3 DSRT analysis; for AUC: area under the dose-response curve; for MIN: lower asymptote of fitted dose-response curve; for EC50: 72 h, fitted dose-response curve, Min.Conc.tested 1, Max.Conc.tested 10000, read-out: EC50; for SLOPE: slope of fitted dose-response curve. Further details: AUC: scale not given here. Format: cell-based, human. The protocol: (§1) The cells were seeded and incubated with a gradient of concentrations of drugs for 72 h, after which the cell viability was assessed (Supplementary Fig. 1a). The drug library primarily comprises epigenetic drugs, including HDAC inhibitors, DNA methyltransferase inhibitors, and histone demethylase inhibitors, as well as conventional chemotherapies and kinase inhibitors (Supplementary Fig. 1b and Supplementary Table 1). […] To identify novel therapeutics against CCA, we conducted a high-throughput screen employing PerkinElmer’s integrated robotic Explorer G3 workstations. […] Following dilution to five specified concentrations, drugs were dispensed into 96-well plates in the sequence detailed in Supplementary Fig. 1a. The CCA cell lines were subsequently plated in 384-well plates at a density of 3000 cells per well in a 20 μL total volume. After a 24-h incubation, the compounds were added to the wells and incubated for 72 h. We then quantified cell viability via the CellTiter-Glo luminescent assay according to the manufacturer’s protocol. Signal detection was carried out on a Synergy2 plate reader operated by Gen5 software (BioTek). For data processing, the raw luminescence data were processed through the Breeze pipeline for curve fitting, yielding quality control metrics (e.g., Z-factors) and drug response parameters (AUC and DSS), as adapted from previous work.[54] Drug responses were evaluated on the basis of the drug sensitivity score (DSS), and a cutoff of ≥10 was used to define efficacy. The complete drug library and screening dataset are available in Supplementary Tables 1-3.
(§2) Supplementary Fig. 1. A high-throughput drug screen to identify drugs targeting CCA. a Schematic representation of the drug screening protocol. […] Each drug was tested at five different concentrations (10, 1, 0.1, 0.01, and 0.001 μM), and each treatment was replicated twice. b Classification of drugs used for screening.
In general terms: In ATP-based viability assays light output follows the ATP content of the culture.

For the next test, the system named is 783C-6. The description is as above. More on the design: AUC: scale not given here. The note with it: for AUC: area under the dose-response curve; for EC50: 72 h, read-out: EC50. In kind it is cell-based, human. The protocol:
as §1, §2

Where [1] appears, read: Homo sapiens, CellTiter-Glo viability, GI50.
[2] abbreviates: 783C-6 cells, DSS of DSRT analysis.
Where [3] appears, read: 783C-6 cells, minimum of dose-response curve.
[4] abbreviates: 783C-6 cells, DSRT analysis, CellTiter-Glo viability, concentrations tested 1 to 10000 (unit inferred), GI50.
Where [5] appears, read: 783C-6 cells, slope of fitted dose-response curve.
Setting [6] is: 783C-6 DSRT analysis, DSS calculated from the dose-response curve.
Where [7] appears, read: 783C-6 DSRT analysis, MIN of the fitted dose-response curve.
The mark [8] stands for this setting: 783C-6 DSRT analysis, slope of the fitted dose-response curve.

Broadly, the EC50 is the concentration giving half of the maximal effect. Take `CCCCc1nc2cc(/C=C/C(=O)NO)ccc2n1CCN(CC)CC` [Pracinostat]: the AUC was found to be 75.5 in the test with 1405R3 and 64.3 with 783C-6 (783C-6 cells). In addition, the DSS in the test on 1405R3 (drug sensitivity score) worked out at 8.7; in the test on 783C-6 (setting [2]), 7.3. Moreover, the MIN was 3.4 in the test with 1405R3 and 3.1 in the test with 783C-6 (setting [3]). The concentration for a half-maximal effect (EC50) in the test on 1405R3 (setting [1]) was 1660 nM; in the test with 783C-6 (Homo sapiens), 2190 nM.
With `CCCCN(Cc1ccc(C(=O)NO)cc1)C(=O)Nc1ccccc1` [Nexturastat A], the figures for the AUC in the test on 1405R3 and in the test with 783C-6 (783C-6 cells) were 0.7 and 4.3, respectively. The DSS in the test on 1405R3 (drug sensitivity score) and in the test with 783C-6 (setting [2]) was 0 throughout. Also, the MIN in the test with 1405R3 was 93.8; with 783C-6 (setting [3]) it was 85.6.
For `CN1CCc2c(c3ccccc3n2Cc2ccc(C(=O)NO)cc2)C1` [Tubastatin A], the AUC is given as 8.2 in the test on 1405R3 and 3.2 in the test on 783C-6 (783C-6 cells). Also, the DSS in the test on 1405R3 (drug sensitivity score) and with 783C-6 (setting [2]) was 0 each time. The MIN with 1405R3 was 92.6; in the test on 783C-6 (setting [3]) it was 92.9.
On to `CCCCNNC(=O)c1ccc(-c2cccc(F)c2F)cc1` [SR-4370], for which the concentration giving a half-maximal response (EC50) is 2080 nM in the test with 1405R3 (CellTiter-Glo viability, GI50) and 2630 nM with 783C-6 (setting [4]). The AUC with 1405R3 came to 63.7; in the test with 783C-6 (783C-6 cells), 54.2. Also, the DSS in the test with 1405R3 (drug sensitivity score) is 7.2; with 783C-6 (setting [2]), 6.1. Besides, the MIN was 6.9 in the test on 1405R3 and 7.5 in the test on 783C-6 (setting [3]). In addition, the SLOPE with 1405R3 and in the test with 783C-6 (setting [5]) was -2.5 each time.
`O=C(O)CCNc1cc(N2CCc3ccccc3CC2)nc(-c2ccccn2)n1` [GSK J1]: the DSS with 1405R3 (DSS) and in the test with 783C-6 (setting [6]) was 0 in each case. Moreover, the AUC with 1405R3 stood at 0.1; in the test on 783C-6 (783C-6 DSRT analysis), 0. For the same compound, the MIN with 1405R3 is given as 100; in the test with 783C-6 (setting [7]), 99.9. The values for the SLOPE in the test on 1405R3 and in the test on 783C-6 (setting [8]) were -0.1 and -1.3, respectively.
Take `C#Cc1cccc(Nc2ncnc3cc(OCCOC)c(OCCOC)cc23)c1` [Erlotinib HCl]: the DSS with 1405R3 (DSS) and in the test on 783C-6 (setting [6]) was 0 throughout. Also, the AUC came out at 27.3 in the test with 1405R3 and 6.9 in the test with 783C-6 (783C-6 DSRT analysis). Moreover, the MIN with 1405R3 was determined as 82.4; in the test on 783C-6 (setting [7]), 77.
Turning to `COC(=O)c1ccc2c(c1)NC(=O)/C2=C(\Nc1ccc(N(C)C(=O)CN2CCN(C)CC2)cc1)c1ccccc1` [Nintedanib], the AUC amounted to 13.7 with 1405R3 and 17.9 with 783C-6 (783C-6 cells). Also, the DSS with 1405R3 (drug sensitivity score) is 0.8; with 783C-6 (setting [2]) it was 1.6. For the same compound, the MIN with 1405R3 came to 84; in the test with 783C-6 (setting [3]), 72.2. For the same compound, the EC50 in the test on 783C-6 (Homo sapiens) amounted to 2290 nM.
For `CNCCN1CCC(OCc2ccccc2)CC1` [MS049], the AUC amounted to 20.8 in the test with 1405R3 and 4.9 in the test with 783C-6 (783C-6 cells). Also, the DSS in the test on 1405R3 (drug sensitivity score) and with 783C-6 (setting [2]) was 0 in each case. In addition, the MIN is given as 86.6 in the test with 1405R3 and 83.6 with 783C-6 (setting [3]). In addition, the SLOPE is listed as -0.1 in the test with 1405R3 and -1 with 783C-6 (setting [5]).
As to `CC(C)N(CCCNC(=O)Nc1ccc(C(C)(C)C)cc1)C[C@H]1O[C@@H](n2cc(Br)c3c(N)ncnc32)[C@H](O)[C@@H]1O` [SGC 0946], the values for the AUC with 1405R3 and in the test with 783C-6 (783C-6 cells) were 6.1 and 19.5, respectively. The DSS in the test on 1405R3 (drug sensitivity score) and in the test on 783C-6 (setting [2]) was 0 throughout. Besides, the MIN worked out at 93.6 with 1405R3 and 94.1 in the test on 783C-6 (setting [3]).
On to `COc1ccc(-c2nc(N3CCOCC3)c3sc(CN(C)c4ncc(C(=O)NO)cn4)cc3n2)cn1` [CUDC-907], for which the DSS in the test with 1405R3 (DSS) is on record as 22.6; with 783C-6 (setting [6]), 21.1. The results for the AUC in the test on 1405R3 and in the test on 783C-6 (783C-6 DSRT analysis) were 188.1 and 175.2, respectively. For the same compound, the MIN in the test on 1405R3 is 0.8; with 783C-6 (setting [7]), 2.9. For the same compound, the half-maximal effective concentration (EC50) was 127 nM with 1405R3 (Homo sapiens, CellTiter-Glo) and 157 nM with 783C-6 (Homo sapiens).
As for `COc1ccc(N(C)c2nc(C)nc3ccccc23)cc1OCCCC(=O)NO` [SKLB-23bb], the concentration for a half-maximal effect (EC50) was 731 nM with 1405R3 (CellTiter-Glo viability, GI50) and 60.2 nM in the test with 783C-6 (setting [4]). Further, the AUC in the test on 1405R3 was 79.5; in the test with 783C-6 (783C-6 cells), 111. The DSS with 1405R3 (drug sensitivity score) was 8.2; in the test on 783C-6 (setting [2]), 13.8. In addition, the MIN in the test with 1405R3 is on record as 33.2; in the test on 783C-6 (setting [3]), 50. Also, the SLOPE with 1405R3 is -0.8; in the test on 783C-6 (setting [5]), -2.5.
Turning to `O=C([C@@H](Cc1cccc(C(F)(F)F)c1)NS(=O)(=O)c1cc(F)c2c(c1)CCNC2)N1CCCC1` [PFI-2 HCl], the AUC with 1405R3 is on record as 15.4; in the test with 783C-6 (783C-6 cells) it was 2.2. For the same compound, the DSS in the test on 1405R3 (drug sensitivity score) and in the test with 783C-6 (setting [2]) was 0 in each case. Moreover, the results for the MIN in the test on 1405R3 and with 783C-6 (setting [3]) were 84.5 and 95.2, respectively.
Turning to `Nc1ccccc1NC(=O)c1ccc(CNC(=O)OCc2cccnc2)cc1` [Entinostat], the DSS is on record as 10 in the test on 1405R3 (DSS) and 9.1 in the test on 783C-6 (setting [6]). Besides, the values for the AUC in the test with 1405R3 and in the test with 783C-6 (783C-6 DSRT analysis) were 87.7 and 78, respectively. Also, the MIN is 5.2 with 1405R3 and 8.3 in the test with 783C-6 (setting [7]). For the same compound, the concentration giving a half-maximal response (EC50) is 1200 nM in the test with 1405R3 (Homo sapiens, CellTiter-Glo) and 1420 nM with 783C-6 (Homo sapiens).
As for `Cc1cn(CCN2CCN(c3ccccc3-c3cc(C#N)cc(C(=O)NCCCN4CCCC4)c3)CC2)c2ccccc12` [LLY-507], the DSS in the test on 1405R3 (DSS) was 5.5; with 783C-6 (setting [6]), 3.9. For the same compound, the AUC stood at 49.7 with 1405R3 and 36.6 with 783C-6 (783C-6 DSRT analysis). In addition, the MIN was 1.8 in the test with 1405R3 and 23.1 in the test with 783C-6 (setting [7]). Further, the EC50 stood at 3190 nM in the test with 1405R3 (Homo sapiens, CellTiter-Glo) and 3430 nM with 783C-6 (Homo sapiens).
For the compound `Nc1ccccc1NC(=O)c1ccc(CNc2nccc(-c3cccnc3)n2)cc1` [Mocetinostat], the AUC is 100.5 in the test with 1405R3 and 98.8 in the test with 783C-6 (783C-6 cells). The DSS with 1405R3 (drug sensitivity score) was found to be 11.8; in the test with 783C-6 (setting [2]), 11.6. Also, the MIN amounted to 1.1 with 1405R3 and 4.8 in the test with 783C-6 (setting [3]). The concentration for a half-maximal effect (EC50) with 1405R3 (setting [1]) was found to be 965 nM; in the test with 783C-6 (Homo sapiens) it was 917 nM.
Take `C#Cc1cccc(Nc2ncnc3cc4c(cc23)OCCOCCOCCO4)c1` [Icotinib]: the DSS in the test with 1405R3 (DSS) is listed as 1.4; in the test on 783C-6 (setting [6]), 0. Besides, the AUC in the test on 1405R3 came to 21.6; in the test on 783C-6 (783C-6 DSRT analysis), 16.8. Also, the MIN in the test on 1405R3 amounted to 84.3; with 783C-6 (setting [7]), 90.4.
In the case of `N.N.[Cl][Pt][Cl]` [Cisplatin], the DSS in the test with 1405R3 (DSS) and in the test on 783C-6 (setting [6]) was 2 throughout. The AUC is on record as 22.7 with 1405R3 and 20.4 in the test on 783C-6 (783C-6 DSRT analysis). In addition, the concentration for a half-maximal effect (EC50) with 1405R3 (CellTiter-Glo) was found to be 1650 nM; with 783C-6 (783C-6 DSRT analysis, CellTiter-Glo viability, fitted dose-response curve, Min.Conc.tested 1, Max.Conc.tested 10000), 2630 nM. Besides, the MIN was determined as 71.3 in the test with 1405R3 and 65.1 in the test with 783C-6 (setting [7]). For the same compound, the SLOPE in the test with 1405R3 was -1.8; in the test with 783C-6 (setting [8]) it was -2.5.
Take `Cc1noc2c1-c1ccccc1C(c1ccc(Cl)cc1)=N[C@H]2CC(N)=O` [CPI-0610]: the DSS in the test on 1405R3 (DSS) is recorded as 6.7; in the test with 783C-6 (setting [6]), 0.7. Moreover, the values for the AUC in the test with 1405R3 and in the test on 783C-6 (783C-6 DSRT analysis) were 64.6 and 34.4, respectively. The MIN in the test with 1405R3 came out at 49.2; in the test on 783C-6 (setting [7]), 84.7. Also, the EC50 in the test on 1405R3 (Homo sapiens, CellTiter-Glo) was found to be 566 nM.
